Laboratory results as given in patent US10144732B2 (BIOGEN MA INC., priority 2014, dated 2018).
Structures can show the parent of a compound that is named as a salt.

Target: T1, Human ATX protein (Homo sapiens, UniProt Q13822)
T1 construct: made in house
Experiment: ATX biochemical assay (FRET, FS-3 substrate)
Settings: FRET assay, FS-3 2 μM, ATX 1.0 μg/mL, 30 minutes preincubation, 2 hours reaction at room temperature; read-out: IC50
Excerpt: ATX (Autotaxin) is a 125 KDa glycoprotein with lysophospholipase D (LPLD) activity that generates the bioactive lipid lysophosphatidic acid (LPA) from lysophosphatidylcholine (LPC). The ATX biochemical assay utilizes a FRET (fluorescence resonance energy transfer) technology platform. The fluorescence signal of FRET substrate FS-3 is quenched due to intra-molecular FRET of a fluorophore to a non-fluorescing quencher (Ferguson, C. G., et al., Org Lett. 2006 May 11; 8(10): 2023-2026, which is incorporated by reference in its entirety). ATX catalyzes the hydrolysis of the substrate which separates the dabsyl quencher from the fluorescein reporter, which becomes fluorescent. The reaction is monitored by a SpectraMax M5 (Molecular Devices, Sunnyvale, Calif.) with at excitation wavelength 485 nm and emission wavelength […].
Fatty acid free-BSA (Sigma A8806): 10 mg/mL in H2O, stored at 4° C.
2×ATX assay buffer: 100 mM Tris, 280 mM NaCl, 10 mM KCl, 2 mM CaCl2, 2 mM MgCl2, pH 7.4.
Human ATX protein: expressed and purified in house. Stored at −80° C.
Substrate FS-3 (Echelon, L-2000): 100 μg in 77.74 μL H2O (1 mM stock), stored at −20° C.
384-well flat bottom plates—Corning #3575.
Compound dilution—All compounds were provided at 10 mM in 100% DMSO. In the first well, 2 μL of 10 mM compound was added to 78 μL of DMSO (1:40 dilution). In subsequent wells 3-fold dilution (total 10 dilutions) were performed.
1×ATX assay buffer was made up with a final concentration of 1 mg/mL fatty acid free-BSA using 2×ATX assay buffer, 10 mg/ml fatty acid free-BSA and ddH2O.
[…]. The final concentration of ATX in the reaction as 1.0 μg/mL.
2 μL per well of compounds was transferred to provide the desired concentration. The plate was centrifuged, then incubated at room temperature for 30 minutes on the shaker.
FS-3 was diluted with 1×ATX assay buffer to a concentration of FS-3 of 10 μM (5×). Then, 10 μL was added per well to the assay plate. The final concentration of FS-3 in the reaction was 2 μM. The plate was centrifuged. The plate was kept shaking at room temperature for 2 hours. Because FS-3 substrate is light sensitive, plates were kept covered and protected from light.
Fluorescence was measured using SpectraMax M5 (excitation at 485 nm/emission at 538 nm, top read).

IC50	Compound
≤ 0.1 µM	O=C(CN1CCC(C(F)(F)F)CC1)N1CCc2c(C(F)(F)F)nn(Cc3ccc(F)cc3)c2C1 [Example 12-15, 1-(1-(4-Fluorobenzyl)-3-(trifluoromethyl)-4,5-dihydro-1H-pyrazolo[3,4-c]pyridin-6(7H)-yl)-2-(4-(trifluoromethyl)piperidin-1-yl)ethanone]
> 10 µM	CCOC(=O)CCNCC(=O)N1CCc2c(C(F)(F)F)nn(Cc3ccc(F)cc3)c2C1 [Example 12-9, Ethyl 3-(2-(1-(4-fluorobenzyl)-3-(trifluoromethyl)-4,5-dihydro-1H-pyrazolo[3,4-c]pyridin-6(7H)-yl)-2-oxoethylamino)propanoate]
≤ 0.1 µM	O=C(O)CN1CCC(C(=O)N2CCc3c(C(F)(F)F)nn(Cc4ccc(F)cc4)c3C2)C1 (stereo not drawn) [Example 15-4, 2-(3-(1-(4-Fluorobenzyl)-3-(trifluoromethyl)-4,5,6,7-tetrahydro-1H-pyrazolo[3,4-c]pyridine-6-carbonyl)pyrrolidin-1-yl)acetic acid TFA salt]
≤ 0.1 µM	CCOC(=O)C1CCCN(CC(=O)N2CCc3c(C(F)(F)F)nn(Cc4ccc(F)cc4)c3C2)CC1 (stereo not drawn) [Example 12-16, Ethyl 1-(2-(1-(4-fluorobenzyl)-3-(trifluoromethyl)-4,5-dihydro-1H-pyrazolo[3,4-c]pyridin-6(7H)-yl)-2-oxoethyl)azepane-4-carboxylate TFA salt]
≤ 0.1 µM	CC1CCN(CC(=O)N2CCc3c(C(F)(F)F)nn(Cc4ccc(Cl)cc4F)c3C2)CC1 [Example 12-13, 1-(1-(4-Chloro-2-fluorobenzyl)-3-(trifluoromethyl)-4,5-dihydro-1H-pyrazolo[3,4-c]pyridin-6(7H)-yl)-2-(4-methylpiperidin-1-yl)ethanone]
≤ 0.1 µM	COC(=O)C1CCN(CC(=O)N2CCc3c(C(F)(F)F)nn(Cc4ccc(F)cc4)c3C2)CC1 [Example 12-1, Methyl 1-(2-(1-(4-fluorobenzyl)-3-(trifluoromethyl)-4,5-dihydro-1H-pyrazolo[3,4-c]pyridin-6(7H)-yl)-2-oxoethyl)piperidine-4-carboxylate]
≤ 0.1 µM	CS(=O)(=O)NC(=O)[C@H]1CC[C@H](CC(=O)N2CCc3c(C(F)(F)F)nn(Cc4ccc(F)cc4)c3C2)CC1 [Example 19-1, trans-4-(2-(1-(4-Fluorobenzyl)-3-(trifluoromethyl)-4,5-dihydro-1H-pyrazolo[3,4-c]pyridin-6(7H)-yl)-2-oxoethyl)-N-(methylsulfonyl)cyclohexanecarboxamide]

Second part, the compound before the results:

Compound	IC50
O=C(NC12CCC(C(=O)O)(CC1)CC2)N1CCc2c(C(F)(F)F)nn(Cc3ccc(Cl)cc3F)c2C1 [Example 5-8, 4-(1-(4-Chloro-2-fluorobenzyl)-3-(trifluoromethyl)-4,5,6,7-tetrahydro-1H-pyrazolo[3,4-c]pyridine-6-carboxamido)bicyclo[2.2.2]octane-I-carboxylic acid]	≤ 0.1 µM
O=C(O)C12CCC(C(=O)N3CCc4c(C(F)(F)F)nn(Cc5ccc(Cl)cc5F)c4C3)(CC1)C2 [Example 5-51]	≤ 0.1 µM
NC12CCC(CC(=O)N3CCc4c(C(F)(F)F)nn(Cc5ccc(F)cc5)c4C3)(CC1)CC2 [Example 9-10, 2-(4-Aminobicyclo[2.2.2]octan-1-yl)-1-(1-(4-fluorobenzyl)-3-(trifluoromethyl)-4,5-dihydro-1H-pyrazolo[3,4-c]pyridin-6(7H)-yl)ethanone TFA salt]	0.1 to 0.25 µM
CCOC(=O)[C@H]1CC[C@H](CC(=O)N2CCc3c(-c4ccccc4)nn(Cc4ccc(F)cc4)c3C2)CC1 [Example 1-44, trans-Ethyl 4-(2-(1-(4-fluorobenzyl)-3-phenyl-4,5-dihydro-1H-pyrazolo[3,4-c]pyridin-6(7H)-yl)-2-oxoethyl)cyclohexanecarboxylate]	≤ 0.1 µM
NC(=O)c1nn(Cc2ccc(F)cc2)c2c1CCN(C(=O)C[C@H]1CC[C@H](C(=O)O)CC1)C2 [Example 5-47, trans-4-(2-(3-Carbamoyl-1-(4-fluorobenzyl)-4,5-dihydro-1H-pyrazolo[3,4-c]pyridin-6(7H)-yl)-2-oxoethyl)cyclohexanecarboxylic acid]	0.25 to 0.5 µM
O=C(O)c1ccc(CC(=O)N2CCc3c(C(F)(F)F)nn(Cc4ccc(Cl)cc4F)c3C2)cc1 [Example 5-5, 4-(2-(1-(4-Chloro-2-fluorobenzyl)-3-(trifluoromethyl)-4,5-dihydro-1H-pyrazolo[3,4-c]pyridin-6(7H)-yl)-2-oxoethyl)benzoic acid]	≤ 0.1 µM
O=C(CC12CCC(C(=O)O)(CC1)CC2)N1CCc2c(C(F)(F)F)nn(Cc3ccc(F)cc3)c2C1 [Example 5-13, 4-(2-(1-(4-Fluorobenzyl)-3-(trifluoromethyl)-4,5-dihydro-1H-pyrazolo[3,4-c]pyridin-6(7H)-yl)-2-oxoethyl)bicyclo[2.2.2]octane-1-carboxylic acid]	≤ 0.1 µM
CC(c1ccc(F)cc1)n1nc(C(F)(F)F)c2c1CN(C(=O)C[C@H]1CC[C@@H](C(=O)O)CC1)CC2 (stereo partly drawn) [Example 5-20, cis-4-(2-(1-(1-(4-Fluorophenyl)ethyl)-3-(trifluoromethyl)-4,5-dihydro-1H-pyrazolo[3,4-c]pyridin-6(7H)-yl)-2-oxoethyl)cyclohexanecarboxylic acid]	≤ 0.1 µM
O=C(CCc1nnn[nH]1)N1CCc2c(C(F)(F)F)nn(Cc3ccc(Cl)cc3F)c2C1 [Example 1-31, 1-(1-(4-Chloro-2-fluorobenzyl)-3-(trifluoromethyl)-4,5-dihydro-1H-pyrazolo[3,4-c]pyridin-6(7H)-yl)-3-(1H-tetrazol-5-yl)propan-1-one]	≤ 0.1 µM
O=C(CC12CCC(C(=O)O)(CC1)C2)N1CCc2c(C(F)(F)F)nn(Cc3ccc(Cl)cc3F)c2C1 [Example 5-52, 4-(2-(1-(4-Chloro-2-fluorobenzyl)-3-(trifluoromethyl)-4,5-dihydro-1H-pyrazolo[3,4-c]pyridin-6(7H)-yl)-2-oxoethyl)bicyclo[2.2.1]heptane-1-carboxylic acid]	≤ 0.1 µM
CC1CC(CC(=O)N2CCc3c(C(F)(F)F)nn(Cc4ccc(Cl)cc4F)c3C2)CCN1C(=O)OC(C)(C)C (stereo not drawn) [Example 8-5, tert-Butyl 4-(2-(1-(4-chloro-2-fluorobenzyl)-3-(trifluoromethyl)-4,5-dihydro-1H-pyrazolo[3,4-c]pyridin-6(7H)-yl)-2-oxoethyl)-2-methylpiperidine-1-carboxylate]	≤ 0.1 µM
CCOC(=O)C1CCC(CC(=O)N2CCc3c(C(F)(F)F)nn(Cc4ccc(Cl)cc4)c3C2)CC1 (stereo not drawn) [Example 1-8, Ethyl 4-(2-(1-(4-chlorobenzyl)-3-(trifluoromethyl)-4,5-dihydro-1H-pyrazolo[3,4-c]pyridin-6(7H)-yl)-2-oxoethyl)cyclohexanecarboxylate]	≤ 0.1 µM
CN1CCC(CC(=O)N2CCc3c(C(F)(F)F)nn(Cc4ccc(Cl)cc4F)c3C2)CC1 [Example 1-2, 1-(1-(4-Chloro-2-fluorobenzyl)-3-(trifluoromethyl)-4,5-dihydro-1H-pyrazolo[3,4-c]pyridin-6(7H)-yl)-2-(1-methylpiperidin-4-yl)ethanone]	≤ 0.1 µM
O=C(C[C@H]1CC[C@H](C(=O)O)CC1)N1CCc2cnn(Cc3ccc(Cl)cc3F)c2C1 [Example 7-3, trans-4-(2-(1-(4-Chloro-2-fluorobenzyl)-4,5-dihydro-1H-pyrazolo[3,4-c]pyridin-6(7H)-yl)-2-oxoethyl)cyclohexanecarboxylic acid]	≤ 0.1 µM
CC1(C)CC(CC(=O)N2CCc3c(C(F)(F)F)nn(Cc4ccc(Cl)cc4F)c3C2)CCN1 (stereo not drawn) [Example 9-6, 1-(1-(4-Chloro-2-fluorobenzyl)-3-(trifluoromethyl)-4,5-dihydro-1H-pyrazolo[3,4-c]pyridin-6(7H)-yl)-2-(2,2-dimethylpiperidin-4-yl)ethanone TFA salt]	≤ 0.1 µM
CC(C)(C)OC(=O)N1CC(CC(=O)N2CCc3c(C(F)(F)F)nn(Cc4ccc(Cl)cc4F)c3C2)C[C@H]1C(=O)O (stereo partly drawn) [Example 5-18, (2S)-1-(tert-Butoxycarbonyl)-4-(2-(1-(4-chloro-2-fluorobenzyl)-3-(trifluoromethyl)-4,5-dihydro-1H-pyrazolo[3,4-c]pyridin-6(7H)-yl)-2-oxoethyl)pyrrolidine-2-carboxylic acid]	≤ 0.1 µM
O=C(C[C@H]1CC[C@H](C(=O)O)CC1)N1CCc2c(C(F)(F)F)nn(Cc3cncs3)c2C1 [Example 5-28, trans-4-(2-Oxo-2-(1-(thiazol-5-ylmethyl)-3-(trifluoromethyl)-4,5-dihydro-1H-pyrazolo[3,4-c]pyridin-6(7H)-yl)ethyl)cyclohexanecarboxylic acid]	≤ 0.1 µM
